Assays:
[1] = target: Carbonic anhydrase 13 (Mus musculus, UniProt Q9D6N1)
Description: Inhibitory activity against mouse carbonic anhydrase XIII expressed in Escherichia coli TOP 10

[2] = target: Carbonic anhydrase V (Homo sapiens, UniProt Q9Y2D0+P35218)
Description: Inhibitory activity against human carbonic anhydrase V expressed in Escherichia coli

[3] = target: Carbonic anhydrase 1 (Homo sapiens, UniProt P00915)
Chain of Carbonic anhydrase 1 (P00915 whole entry): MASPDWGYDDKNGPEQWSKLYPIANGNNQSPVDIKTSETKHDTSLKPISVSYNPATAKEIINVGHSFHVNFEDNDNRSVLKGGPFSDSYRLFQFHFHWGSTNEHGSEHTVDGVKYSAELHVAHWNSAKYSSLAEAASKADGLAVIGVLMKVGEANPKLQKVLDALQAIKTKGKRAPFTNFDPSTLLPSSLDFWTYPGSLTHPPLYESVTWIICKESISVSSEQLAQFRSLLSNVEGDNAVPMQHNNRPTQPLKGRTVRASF
Description: Inhibitory activity against human carbonic anhydrase I expressed in Escherichia coli

Chain of Carbonic anhydrase 13 (Q9D6N1 whole entry): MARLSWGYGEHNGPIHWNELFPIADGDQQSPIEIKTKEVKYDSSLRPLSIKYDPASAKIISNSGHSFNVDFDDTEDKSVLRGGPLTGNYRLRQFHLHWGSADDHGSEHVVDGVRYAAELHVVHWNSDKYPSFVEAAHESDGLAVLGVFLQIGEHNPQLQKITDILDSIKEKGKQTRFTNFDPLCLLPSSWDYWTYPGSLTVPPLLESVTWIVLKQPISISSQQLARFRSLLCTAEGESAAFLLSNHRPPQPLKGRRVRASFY

Q: Which Ki [1] does the source give for `Br` [BROMIDE] here?
A: 45 mM

Q: `N#CO` [CYANATE] was tested. Which Ki [1] did it give?
A: 0.00025 mM

Q: `F` [FLUORIDE ION] was tested. Which Ki [1] did it give?
A: 3 mM

Q: For `Cl` [HYDROCHLORIC ACID], which Ki [2] is on record?
A: 156 mM

Q: And the Ki [1]?
A: 138 mM

Q: For `S` [HYDROGEN SULFIDE], which Ki [2] is on record?
A: 0.02 mM

Q: What about the Ki [1] of the same compound?
A: 5.2 mM

Q: With `I` [IODIDE] as the compound, how does the Ki [2] read?
A: 25 mM

Q: What about the Ki [1] of the same compound?
A: 5.4 mM

Q: Which results are given for `O=[N+]([O-])O` [NITRIC ACID]?
A: Ki [2]: 16 mM; Ki [1]: 36 mM

Q: Which Ki [1] does the source give for `O=NO` [NITROUS ACID] here?
A: 12.6 mM

Q: How did the Ki [2] turn out when `OB(O)c1ccccc1` [PHENYLBORONIC ACID] was run?
A: 4.51 mM

Q: What about the Ki [1] of the same compound?
A: 2.85 mM

Q: What does the source list for `NS(=O)(=O)O` [SULFAMATE]?
A: Ki [2]: 0.12 mM; Ki [1]: 21.5 mM

Q: With `NS(N)(=O)=O` [SULFAMIDE] as the compound, how does the Ki [1] read?
A: 0.14 mM

Q: What does the source list for `O=S(=O)(O)O` [SULFURIC ACID]?
A: Ki [2]: 680 mM; Ki [1]: 267 mM

Q: How did the Ki [3] turn out when `O=S(O)O` [SULFUROUS ACID] was run?
A: 18 mM

Q: What about the Ki [1] of the same compound?
A: 75.5 mM

Q: `N#CS` [THIOCYANIC ACID] was tested. Which Ki [1] did it give?
A: 0.74 mM

Source: ChEMBL document CHEMBL1138690, “Carbonic anhydrase inhibitors. Inhibition of the newly isolated murine isozyme XIII with anions” (Bioorg Med Chem Lett, 2004)
